In the test the target is Sodium channel protein type 9 subunit alpha (Homo sapiens, UniProt Q15858). In words: cell-based.

The record followed here is ChEMBL document CHEMBL2321810, “QSAR investigation of NaV1.7 active compounds using the SVM/Signature approach and the Bioclipse Modeling platform” (Bioorg Med Chem Lett, 2013).

One may read the IC50 as the concentration that gives 50% inhibition.

Sodium channel protein type 9 subunit alpha, sequence (Q15858 whole entry): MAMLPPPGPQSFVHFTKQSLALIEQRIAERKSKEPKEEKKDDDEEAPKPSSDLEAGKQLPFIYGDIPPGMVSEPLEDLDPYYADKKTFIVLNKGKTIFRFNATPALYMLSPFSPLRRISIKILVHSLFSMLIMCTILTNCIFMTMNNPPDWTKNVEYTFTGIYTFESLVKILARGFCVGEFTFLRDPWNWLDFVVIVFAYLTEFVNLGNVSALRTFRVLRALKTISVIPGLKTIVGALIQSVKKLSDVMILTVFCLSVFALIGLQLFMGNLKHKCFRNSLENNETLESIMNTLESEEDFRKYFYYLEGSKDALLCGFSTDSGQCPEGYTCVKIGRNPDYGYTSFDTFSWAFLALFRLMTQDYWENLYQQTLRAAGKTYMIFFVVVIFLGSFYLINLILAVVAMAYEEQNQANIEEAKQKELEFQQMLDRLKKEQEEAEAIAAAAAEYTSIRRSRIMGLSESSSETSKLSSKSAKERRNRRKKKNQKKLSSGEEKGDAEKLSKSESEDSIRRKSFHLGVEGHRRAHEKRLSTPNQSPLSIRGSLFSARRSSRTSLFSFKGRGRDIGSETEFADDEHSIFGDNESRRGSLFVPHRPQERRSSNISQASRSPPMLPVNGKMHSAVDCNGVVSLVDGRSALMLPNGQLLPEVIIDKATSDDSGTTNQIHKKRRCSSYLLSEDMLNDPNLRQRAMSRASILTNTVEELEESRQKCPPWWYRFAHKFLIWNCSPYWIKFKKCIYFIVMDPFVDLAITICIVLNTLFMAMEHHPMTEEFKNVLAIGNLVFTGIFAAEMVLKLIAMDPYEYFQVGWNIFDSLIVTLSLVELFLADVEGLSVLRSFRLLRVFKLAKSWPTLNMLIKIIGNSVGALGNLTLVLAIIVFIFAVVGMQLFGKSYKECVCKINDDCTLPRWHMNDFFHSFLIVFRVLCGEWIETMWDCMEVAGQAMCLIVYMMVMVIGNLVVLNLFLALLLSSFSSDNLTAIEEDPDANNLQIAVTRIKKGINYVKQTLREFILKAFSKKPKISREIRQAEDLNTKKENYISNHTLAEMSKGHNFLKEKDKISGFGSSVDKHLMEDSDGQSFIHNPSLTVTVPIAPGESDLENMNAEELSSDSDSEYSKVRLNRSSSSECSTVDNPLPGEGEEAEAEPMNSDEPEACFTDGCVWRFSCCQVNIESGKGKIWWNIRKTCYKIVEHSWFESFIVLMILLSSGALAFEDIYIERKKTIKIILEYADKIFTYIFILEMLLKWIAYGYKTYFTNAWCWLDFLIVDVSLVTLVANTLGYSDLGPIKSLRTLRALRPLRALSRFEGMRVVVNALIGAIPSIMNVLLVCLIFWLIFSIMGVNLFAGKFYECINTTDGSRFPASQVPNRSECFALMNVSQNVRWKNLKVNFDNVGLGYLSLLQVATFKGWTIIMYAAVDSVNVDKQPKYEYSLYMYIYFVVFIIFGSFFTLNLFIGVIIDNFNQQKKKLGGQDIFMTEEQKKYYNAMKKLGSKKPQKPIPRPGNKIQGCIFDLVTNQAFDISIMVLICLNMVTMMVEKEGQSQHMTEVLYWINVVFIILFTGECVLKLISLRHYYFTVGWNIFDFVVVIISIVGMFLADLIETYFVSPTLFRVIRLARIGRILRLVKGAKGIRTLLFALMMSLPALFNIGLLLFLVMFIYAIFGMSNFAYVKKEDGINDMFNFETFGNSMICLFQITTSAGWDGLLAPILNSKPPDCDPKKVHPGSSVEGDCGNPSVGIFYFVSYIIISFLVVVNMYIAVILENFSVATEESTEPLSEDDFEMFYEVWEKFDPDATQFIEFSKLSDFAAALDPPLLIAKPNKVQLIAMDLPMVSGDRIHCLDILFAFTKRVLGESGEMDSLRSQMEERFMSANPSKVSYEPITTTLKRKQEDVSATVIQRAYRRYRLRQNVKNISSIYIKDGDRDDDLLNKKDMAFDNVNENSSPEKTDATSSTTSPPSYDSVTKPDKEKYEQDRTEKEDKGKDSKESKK

In turn, `Cc1nonc1NS(=O)(=O)c1ccc(Oc2ccc(Cl)cc2-c2ccnn2C)c(C#N)c1` gave an IC50 of 10 µM.
With `Cn1nccc1-c1cccc(Oc2ccc(S(=O)(=O)Nc3nccs3)cc2C#N)c1` the figure was 1 µM.
Turning to `Cc1cnc(NS(=O)(=O)c2ccc(Oc3ccc(Cl)cc3-c3ccnn3C)c(C#N)c2)cn1`, the IC50 is 10 µM.
With `Cn1nccc1-c1cc(Cl)ccc1Oc1ccc(S(=O)(=O)Nc2cc[nH]n2)cc1C#N` the figure was 10 µM; with `COc1cc(Oc2ccc(S(=O)(=O)Nc3ccc(F)cn3)cc2C#N)ccc1-n1cnc(C)c1`, 30 µM; with `N#Cc1cc(S(=O)(=O)Nc2nccs2)ccc1Oc1ccc(N2CCNC2=O)cc1`, 1 µM.
Then `COc1cc(-c2ccc(Oc3ccc(S(=O)(=O)Nc4nccs4)cc3)c(F)c2)n(C)n1`, with 2.7 µM; and `N#Cc1cc(S(=O)(=O)Nc2ccc(F)cn2)ccc1Oc1ccc(-n2ccnc2)cc1`, with 3 µM; and `COc1cc(Oc2ccc(S(=O)(=O)Nc3ccc(F)cn3)cc2C#N)ccc1-n1cccn1`, with 3 µM.
The compound `N#Cc1ccc(Oc2cc(F)c(S(=O)(=O)Nc3ncns3)cc2Cl)c(-c2ccn[nH]2)c1` gave an IC50 of 0.0094 µM.
With `O=S(=O)(Nc1cscn1)c1cc(Cl)c(Oc2cc(C(F)(F)F)ccc2-c2cn[nH]c2)cc1F` the figure was 0.26 µM; with `O=S(=O)(Nc1nccs1)c1ccc(Oc2ccc(Oc3ccccc3)cc2)c(F)c1`, 10 µM; with `CCn1nc(C(F)(F)F)cc1-c1ccc(Oc2ccc(S(=O)(=O)Nc3ncccn3)cc2C#N)cc1`, 1 µM.
Then `N#Cc1cc(S(=O)(=O)Nc2ncns2)ccc1Oc1ccc(-n2cc(CO)cn2)cc1`, with 1 µM; and `CCn1nc(C(F)(F)F)cc1-c1ccc(Oc2ccc(S(=O)(=O)Nc3ncc(F)s3)cc2F)cc1`, with 0.82 µM.
`CCn1nc(-c2ccc(Oc3ccc(S(=O)(=O)Nc4nccs4)cc3C#N)c(F)c2)cc1C(F)(F)F` had an IC50 of 1 µM.
With `Cc1cccc(-c2ccc(OC(C)C)cc2)c1Oc1ccc(S(=O)(=O)Nc2ncns2)cc1C#N` the figure was 0.84 µM; with `CC(C)Oc1cc(-c2cc(F)ccc2Oc2ccc(S(=O)(=O)Nc3cscn3)cc2C#N)n(C)n1`, 3 µM; with `N#Cc1cc(S(=O)(=O)Nc2nccs2)ccc1Oc1ccccc1-c1nncn1-c1ccccc1`, 10 µM.
Then `N#Cc1cc(S(=O)(=O)Nc2ccccc2)ccc1Oc1ccccc1-c1ccccc1`, with 10 µM.
Turning to `N#Cc1cc(S(=O)(=O)Nc2nccs2)ccc1Oc1cc(C2CC2)nn1-c1ccccn1`, the half-maximal inhibitory concentration (IC50) is 10 µM.
Then `Cc1nc(-c2ccccc2Oc2ccc(S(=O)(=O)Nc3ccc(F)cn3)cc2C#N)cs1`, with 30 µM; and `N#Cc1cc(S(=O)(=O)Nc2ccccc2C(F)(F)F)ccc1Oc1ccccc1-c1ccccc1`, with 3 µM; and `CCc1nsc(NS(=O)(=O)c2ccc(Oc3ccccc3-c3ccccc3)c(C#N)c2)n1`, with 10 µM.
Then `CC(C)(C)n1ccc(-c2c(F)cccc2Oc2ccc(S(=O)(=O)Nc3ncns3)cc2C#N)n1`, with 10 µM.
